Results reported in patent US11267802B2 (BEBETTER MED INC., priority 2015, dated 2022).

Tests used:
EGFR T790M/L858R = target: T1, EGFR T790M/L858R (Homo sapiens, UniProt P00533, L858R/T790M); test: Mutant EGFR T790M/L858R activity inhibition assay (Caliper mobility shift); type: biochemical; details: read-out: enzyme activity inhibition (IC50) EGFR T790M/L858R
T1 construct: purchased Invitrogen PR8911A
Outline: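 Compound added in 10% DMSO at 5-fold final concentration; substrate conversion read by Caliper mobility shift. Inhibition = (max−conversion)/(max−min)×100, with max from DMSO no-compound wells and min from no-enzyme wells; IC50 from fitted concentration–response curve.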

[1] = Pharmacokinetics in rats after oral administration; type: in vivo, SD rats
Description: Male SD rats weighing 250-300 g, or male beagles weighing 9-10 kg, were fasted overnight before the experiment. The object compounds were dissolved in 30% sulfobutylated beta-cyclodextrin (SBE-β-CD), and orally administrated to the rats at a dose of 20 mg/kg or to the beagles at a dose of 5 mg/kg. Blood samples were taken at 15 minutes, 30 minutes, 1 hour, 2 hours, 3 hours, 4 hours, 6 hours, 8 hours and 24 hours after administration. 0.3 ml of blood was collected at every time point, placed in a centrifuge tube containing K2-EDTA (ethylenediamine tetraacetic acid dipotassium) and centrifuged (2,000 g, 10 minutes, 4° C.) to collect plasma, which was then stored in an ultra cold storage freezer at −80° C. 50 μL of plasma sample was mixed with 5 μL of internal standard (IS), and then extracted with ethyl acetate. After vacuum drying, the residue was re-dissolved in acetonitrile. The sample was filtered and injected into LC-MS/MS for analysis.

[2] = test system: EGFR phosphorylation in H1975 xenograft tumor; test: Pharmacodynamic experiments of tumor model (EGFR phosphorylation, Western blot); type: in vivo, Balb/C nude mice; details: oral 30 mg/kg
Description: (§1) Balb/C nude mice were purchased from Beijing Vital River Laboratory Animal Technology Co., Ltd., and housed in SPF animal room. The human non-small-cell lung cancer cell line H1975 in a culture dish was collected by trypsin-EDTA (0.25% trypsin, 1 mM EDTA), and then washed with a serum-free PBS solution. Lastly, the cells were implanted after diluted in a serum-free medium. Only the single cell suspension with a survival rate over 90% (Trypan blue rejection) can be used for injection. 5 million cells suspended in a 0.1 ml serum-free culture were injected into the front right flanking subcutaneous region of each mouse by using a 1 ml syringe and a 25G syringe needle, and the blood vessel was carefully avoided. The tumor size was measured in about one week after implantation. A caliper rule was used to measure the tumor size. The tumor volume was calculated by the following formula: tumor volume=(length×width^2)/2.
When the H1975 xenograft tumor reached a volume of about […], the animals were divided into 4 oral administration groups, that is, excipient control group (0 hour) and groups of 2 hours, 4 hours, and 8 hours after administration (3 to 4 animals at each time point). […]
20 mg of tumor tissue was homogenized in 300 μl of protein extract (RIPA, CST, #9806). […] The protein concentration was determined by Bradford method (Beyotime, # P0006). […]

H1975 xenograft tumor [3] = test: Potency assay of tumor model, 16 consecutive days; type: in vivo, Balb/C nude mice; details: oral
Description: as §1
This experiment studied the inhibition of tumor growth in H1975 xenograft tumor model by the compounds 20, 50, 91, and 118. When the mean volume of H1975 tumor reached about 260 mm^3, the animals were divided into 5 oral administration groups, that is, excipient control group and groups of oral administration of compound 20, compound 50, compound 91, and compound 118, respectively (n=8/group). These compounds were dissolved in 30% sulfobutylated beta-cyclodextrin (SBE-β-CD) and 1N HCl (pH 3-4). […]

H1975 xenograft tumor [4] = test: Potency assay of tumor model, dose-effect relationship, 22 consecutive days; type: in vivo, Balb/C nude mice; details: for Tumor inhibition T/C value (%) / Weight change (%): po, qd
Description: as §1
Further assay was performed to assess the dose-effect relationship of the inhibition of H1975 transplantation tumor growth by the compounds 51 and 91. […] These compounds were dissolved in 30% sulfobutylated beta-cyclodextrin (SBE-β-CD) and 1N HCl (pH 3-4), respectively. […]

[5] = male, SD, rat, 20 mg/kg, plasma

T1 sequence (P00533 25-1210 T790M/L858R): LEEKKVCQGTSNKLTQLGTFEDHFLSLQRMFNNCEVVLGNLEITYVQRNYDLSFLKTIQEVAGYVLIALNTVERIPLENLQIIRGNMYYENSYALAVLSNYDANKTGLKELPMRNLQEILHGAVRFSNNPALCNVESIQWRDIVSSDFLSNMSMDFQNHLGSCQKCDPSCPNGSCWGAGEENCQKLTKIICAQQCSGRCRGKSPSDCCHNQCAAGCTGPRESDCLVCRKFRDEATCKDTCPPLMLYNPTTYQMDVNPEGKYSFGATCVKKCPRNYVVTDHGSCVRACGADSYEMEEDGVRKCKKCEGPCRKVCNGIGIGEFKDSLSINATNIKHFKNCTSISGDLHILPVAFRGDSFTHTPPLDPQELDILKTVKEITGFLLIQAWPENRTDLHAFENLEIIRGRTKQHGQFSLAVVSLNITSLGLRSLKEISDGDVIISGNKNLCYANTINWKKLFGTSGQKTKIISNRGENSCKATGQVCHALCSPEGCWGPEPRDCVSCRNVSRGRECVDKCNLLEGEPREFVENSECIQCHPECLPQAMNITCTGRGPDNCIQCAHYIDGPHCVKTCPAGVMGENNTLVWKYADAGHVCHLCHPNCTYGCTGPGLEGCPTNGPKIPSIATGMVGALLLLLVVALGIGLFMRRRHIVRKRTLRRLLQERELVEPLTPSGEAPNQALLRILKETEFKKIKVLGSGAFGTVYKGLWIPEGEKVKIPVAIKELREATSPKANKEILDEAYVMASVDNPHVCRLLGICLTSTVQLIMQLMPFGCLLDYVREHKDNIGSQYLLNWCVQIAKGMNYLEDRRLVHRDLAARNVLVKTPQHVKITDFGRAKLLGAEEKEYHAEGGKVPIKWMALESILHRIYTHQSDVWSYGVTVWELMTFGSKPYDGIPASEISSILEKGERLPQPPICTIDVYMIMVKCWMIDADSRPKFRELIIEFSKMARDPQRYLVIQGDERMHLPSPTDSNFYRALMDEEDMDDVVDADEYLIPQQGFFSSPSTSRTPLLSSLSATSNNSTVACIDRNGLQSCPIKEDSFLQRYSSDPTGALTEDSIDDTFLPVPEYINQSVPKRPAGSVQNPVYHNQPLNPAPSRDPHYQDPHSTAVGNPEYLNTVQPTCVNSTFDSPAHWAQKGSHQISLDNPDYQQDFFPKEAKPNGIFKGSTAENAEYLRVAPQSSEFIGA

C=CC(=O)Nc1cc(Nc2nccc(-n3c(=O)n(C(C)C)c4cc(F)ccc43)n2)c(OC)cc1N(C)CCN(C)C [Compound 91, N-(2-((2-(dimethylamino)ethyl)(methyl)amino)-5-(4-(5-fluoro-3-isopropyl-2-oxo-2,3-dihydro-1H-benzo[d]imidazol-1-yl)pyrimidin-2-ylamino)-4-methoxyphenyl)acrylamide]
IC50 (EGFR T790M/L858R): < 1 nM
absorption / blood exposure after oral administration (in words) [1]: well absorbed, with high blood exposure
AUC(0-inf) [1, 5]: 1350 ng·h/mL
Cmax [1, 5]: 292 ng/mL
Tmax [1, 5]: 1 h
half-life [1, 5]: 3 h
AUC(0-t) ([1]; male, SD, rat, 20 mg/kg, plasma, read-out: AUC0-24): 1340 ng·h/mL
inhibition of EGFR phosphorylation in H1975 tumor (in words) ([2]; at 2 hours and 4 hours): strong
inhibition of EGFR phosphorylation in H1975 tumor (in words) ([2]; at 8 hours): obvious inhibition effect
T/C value (H1975 xenograft tumor [3]; 30 mg/kg qd as printed, 16 days after administration): −95%
inhibition of growth of H1975 xenograft tumor (in words) (H1975 xenograft tumor [3]; 30 mg/kg qd, 16 days): tumor regression
Tumor inhibition T/C value (%) (H1975 xenograft tumor [4]; 10 mg/kg, 22 consecutive days): −73%
Weight change (%) (H1975 xenograft tumor [4]; 10 mg/kg, 22 consecutive days): 1.6%
Tumor inhibition T/C value (%) (H1975 xenograft tumor [4]; 20 mg/kg, 22 consecutive days): −100%
Weight change (%) (H1975 xenograft tumor [4]; 20 mg/kg, 22 consecutive days): 1.2%
Tumor inhibition T/C value (%) (H1975 xenograft tumor [4]; 40 mg/kg, 22 consecutive days): −100%
Weight change (%) (H1975 xenograft tumor [4]; 40 mg/kg, 22 consecutive days): −3.5%
tumor outcome (in words) (H1975 xenograft tumor [4]; high dose (40 mg/kg), 22 consecutive days): the tumor disappeared completely
dose dependence of inhibition of H1975 xenograft tumor growth (in words) (H1975 xenograft tumor [4]; oral, 10, 20 and 40 mg/kg): dose dependently inhibited
melting point: 225 to 227 °C
